Reference: patent US20160115540A1, “PRODRUGS AND DRUGS” (Biogen MA Inc., priority 2013, published 2016)
Where a name gives a salt, the structure may show the parent alone.

System: spinal cord
Assay: Transcriptional profiling, multi-dosing regimen, naïve mice: spinal cord
Type: in vivo
Conditions: for FC, Depp (1433836_PM_a_at) / FC, Depp (1433837_PM_at): SpinalCord, multi-dosing; for Number of differentially expressed genes identified: Spinal Cord: Table 13: Naïve, Single Dose (so in the source), 12 h after last dosing
Protocol: In vivo, DMF is rapidly metabolized to monomethyl fumarate (MMF). […] Animals were exposed to CO2 and whole blood collected via cardiac puncture. Two 100 μl aliquots of whole blood were collected in 1.5 mL microcentrifuge tubes and snap frozen in liquid nitrogen. Peripheral (liver, spleen, kidney and jejunum) and CNS brain (cerebellum, hippocampus, striatum and cortex) tissues were harvested and snap frozen in liquid nitrogen, with special care taken to collect tissues of similar size and from the same location. All samples were stored at -80° C. until RNA extraction was conducted. For RNA preparation, frozen tissues were placed in 2 mL RNAse-free 96-well blocks with 1.5 mL QIAzol Lysis Reagent (QIAgen) and a 3.2 mm stainless steel bead (BioSpec Products, Bartlesville, Okla.). Tissues were disrupted for four cycles of 45 seconds in a Mini-Beadbeater (Biospec Products). RNA was extracted in chloroform and the aqueous phase was mixed with an equal volume of 70% ethanol. Extracted RNA was applied to RNeasy 96 plates and purified by the spin method according to the manufacturer's protocol (RNeasy 96 Universal Tissue Protocol, QIAgen, Hilden Germany). […] Two micrograms of biotin labeled […] probe were hybridized to Affymetrix GeneChip Affymetrix HT_MG-430_PM plate arrays with modified conditions as described in […] et al. Washing and staining of the hybridized arrays were completed as described in the GeneChip Expression analysis technical manual for HT plate arrays using the Genechip® Array Station (Affymetrix, Santa Clara, Calif.) with modifications as described in […] et al. The processed GeneChip® plate arrays were scanned using GeneTitan scanner (Affymetrix, Santa Clara, Calif.). Affymetrix scans were subject to quality control (QC) measures. These tests included a visual inspection of the distribution of raw signal intensities and an assessment of RNA degradation, relative log expression (RLE), and normalized unsealed standard error (NUSE). All sample scans that passed these QC metrics were included in the analysis. All CEL files were subjected to GC-content-based Robust Multi-array Average (GCRMA) normalization (version 2.20.0) (Irizarry R A, et al. Nucleic Acids Res 2003; 31:e15; Li C, et al. […] Stat Appl Genet Mol Biol 2004; 3:Article3). […] Springer Science+Business Media 2005). Changes in gene expression were studied by applying a linear modeling approach to fit gene expression levels according to the defined groups of samples (e.g. DMF-, MMF-, and Vehicle-treated animals) and Bayesian posterior error analysis as implemented by Smyth (Smyth G K. Stat Appl Genet Mol Biol 2004; 3:Article3). The comparisons considered included: DMF-vs-MMF, DMF-vs-Vehicle, and MMF-vs-Vehicle. […] Very few DEGs are observed in blood and tissues derived from the central nervous system (brain, cerebellum, cortex, striatum, and spinal cord).

[1] = SPINAL CORD, 100DMF-vs-100MMF, naïve multidose

| SMILES | FC 8430408G22Rik (1433836_PM_a_at) [1] | FC 8430408G22Rik (1433837_PM_at) [1] | FC Mtmr2 (1425459_PM_at) [1] | FC Tle4 (1430384_PM_at) [1] | FC 8430408G22Rik (1433837_PM_at) (SPINAL CORD, 100DMF-vs-Veh, naïve multidose) | FC, Depp (1433836_PM_a_at) (DMF-vs-MMF) | FC, Depp (1433837_PM_at) (DMF-vs-MMF) | FC, Depp (1433836_PM_a_at) (DMF-vs-Vehicle) | FC, Depp (1433837_PM_at) (DMF-vs-Vehicle) | Number of differentially expressed genes identified: Spinal Cord (100 mpk DMF-vs-90 mpk MMF) | Number of differentially expressed genes identified: Spinal Cord (100 mpk DMF-vs-Vehicle) | DEPP gene induction (mRNA) (spinal cord, multi-dosing regimen, naïve mice) | FC, Depp (1433836_PM_a_at) (MMF-vs-Vehicle) | FC, Depp (1433837_PM_at) (MMF-vs-Vehicle) | Number of differentially expressed genes identified: Spinal Cord (90 mpk MMF-vs-Vehicle) |
| --- | --- | --- | --- | --- | --- | --- | --- | --- | --- | --- | --- | --- | --- | --- | --- |
| COC(=O)/C=C/C(=O)OC [DMF, dimethyl fumarate] | 1.92 | 1.65 | 1.57 | −1.55 | 1.73 | 1.92 | 1.65 | 1.66 | 1.73 | 4 | 1 | robustly induced | – | – | – |
| COC(=O)/C=C/C(=O)O [MMF, monomethyl fumarate] | – | – | – | – | – | – | – | – | – | – | – | – | −1.16 | 1.05 | 0 |
